Source: patent US20060025485A1, “Hydroxybenazamide compounds for treatment of cancer” (priority 2004, published 2006)
“Also recorded” adds a separate entry of the source. Where two headings read alike, the source gives them in different places.

Columns and labels:
hASH1 = experiment: Western analysis of hASH1, BON cells; format: cell-based, human; details: 20 μM and 100 μM, 2 days
Procedure: (§1) ZM 336372 treatment. H727 and BON cells were plated at 50-60% confluence in 100 mm cell culture dishes and incubated overnight.
(§2) Western blot analysis. Cellular extracts were prepared and quantified by BCA protein assay kit (Pierce, Rockford, Ill.) as previously described (Sippel et al., 2003). 30-50 μg of denatured proteins from each sample underwent electrophoresis on a SDS-polyacrylamide gel and transferred to a nitrocellulose membranes (Schleicher and Schuell, Keene, N.H.). Membranes were blocked for 1 hr in milk solution (1×PBS, 5% non-fat dry milk, 0.05% Tween-20) and then incubated at 4° C. overnight with primary antibodies. The following primary antibody dilutions were used: phospho-ERK 1/2 (1:1,000); phospho-MEK (1:1,000); phospho-Raf-1 (Serine338) (1:1,000); p21 and p18, (1:1,000); (Cell Signal Technology, Beverly, Mass.), Chromogranin A (1:2,000; Zymed Laboratories, San Francisco, Calif.); MASH-1 (1:1000, BD Pharmingen) and G3PDH (1:10,000; Trevigen, Gaithersburg, Md.). After primary antibody incubation, membranes were washed 3×5 min in PBS-T wash buffer (1×PBS, 0.05% Tween 20). Then the membranes were incubated with either 1:2,000 dilution of goat anti-rabbit or goat anti-mouse secondary antibody (Cell Signal Technology, Beverly, Mass.) depending on the source of the primary antibody for 1 hr at room temperature. […]

[1] = test system: HT-29 cells, a colon cancer cell line; experiment: cell morphology after 9-day treatment, HT-29 cells; format: cell-based
Text: (§3) The results were assay using standard MTT, Western blot and cytoxocity assays.

pMEK and p-MAPK = experiment: Western blot of pMEK and p-MAPK, HT-29 cells; format: cell-based
Text: as §3

[2] = Drug toxicity assay, propidium iodide exclusion, BON cells; format: cell-based; details: human, 63 to 500 μM, read-out: viable cells by PI exclusion
Procedure: Drug Toxicity Assay. Briefly, cells were trypsinized and plated in a 6-well plate at 1-2×10^6 in triplicate and allowed to adhere overnight. […] As a control, DMSO was added. After incubation, the media was removed and cells were trypsinized and added to removed media. Cells were incubated on ice and 2.5 μg/ml Propidium Iodide (Sigma, St. Louis, Mo.) was added five minutes before flow cytometry (Ballestrero et al., 2004). Data was acquired using a FACSCalibur benchtop flow cytometer (Becton Dickenson, San Jose, Calif.) using CellQuest acquisition and analysis software.

[3] = test system: H727 pulmonary carcinoid cells; experiment: cell culture pictures of H727 cells; format: cell-based, human; details: 100 μM, days 2, 4 and 6, versus DMSO
Procedure: (§4) Cell culture. Human pulmonary carcinoid cells (NCI-H727) were obtained from American Type Culture Collection (Manassas, Va.) and human pancreatic carcinoid tumor cells, BON a generous gift of Drs. Evers and Townsend (Parekh et al., 1994), were maintained in RPMI 1640 and D-MEM-F12 media (Life Technologies, Rockville, Md.) respectively supplemented with 10% Fetal Bovine Serum (Sigma, St. Louis, Mo.), 100 IU/ml penicillin and 100 μg/ml streptomycin (Life Technologies) in a humidified atmosphere of 5% CO2 in air at 37° C. The maintenance of BON-raf cells and the activation of Raf-1 were followed as described previously (Sippel et al., 2003; Sippel and Chen, 2002; McMahon, 2001).
as §1

Raf-1/MEK/ERK = experiment: Western analysis of Raf-1 pathway activation, H727 cells; format: cell-based, human
Procedure: H727 and BON cells were plated at 50-60% confluence in 100 mm cell culture dishes and incubated overnight.
Western blot analysis. Cellular extracts were prepared and quantified by BCA protein assay kit (Pierce, Rockford, Ill.) as previously described (Sippel et al., 2003). 30-50 μg of denatured proteins from each sample underwent electrophoresis on a SDS-polyacrylamide gel and transferred to a nitrocellulose membranes (Schleicher and Schuell, Keene, N.H.). Membranes were blocked for 1 hr in milk solution (1×PBS, 5% non-fat dry milk, 0.05% Tween-20) and then incubated at 4° C. overnight with primary antibodies. The following primary antibody dilutions were used: phospho-ERK 1/2 (1:1,000); phospho-MEK (1:1,000); phospho-Raf-1 (Serine338) (1:1,000); p21 and p18, (1:1,000); (Cell Signal Technology, Beverly, Mass.), Chromogranin A (1:2,000; Zymed Laboratories, San Francisco, Calif.); MASH-1 (1:1000, BD Pharmingen) and G3PDH (1:10,000; Trevigen, Gaithersburg, Md.). After primary antibody incubation, membranes were washed 3×5 min in PBS-T wash buffer (1×PBS, 0.05% Tween 20). Then the membranes were incubated with either 1:2,000 dilution of goat anti-rabbit or goat anti-mouse secondary antibody (Cell Signal Technology, Beverly, Mass.) depending on the source of the primary antibody for 1 hr at room temperature. Membranes were washed 3×5 min in PBS-T wash buffer and developed by Immunstar™ HRP (Bio-Rad Laboratories, Hercules, Calif.) according to the manufacturer's directions. For the detection of hASH1 protein, membranes were developed with SuperSignal West Femto chemiluminescence reagent (Pierce).

[4] = test system: TT medullary thyroid cancer cells; experiment: MTT assay, TT cells; format: cell-based; details: 100 μM, versus DMSO
MiaPaCa-2 = experiment: cell morphology after 9-day treatment, MiaPaCa-2 cells; format: cell-based
Text: as §3

[5] = test system: BON pancreatic carcinoid cells; experiment: cell culture pictures of BON cells; format: cell-based, human; details: 100 μM, 4 days, versus DMSO alone
Procedure: as §4, §1

p21 = experiment: Western analysis of cell cycle inhibitor p21, H727 cells; format: cell-based, human; details: 20 μM and 100 μM, 2 days
Procedure: as §1, §2

Panc-1 cells = experiment: cell morphology after 9-day treatment, Panc-1 cells; format: cell-based; details: Panc-1, 100 μM, 9-day cycle
Text: as §3

HT-29 = HT-29 MTT Assay; format: cell-based; details: HT-29, varying concentrations
raf-1 = details: cited from earlier work
p18 = experiment: Western analysis of cell cycle inhibitor p18, H727 cells; format: cell-based, human; details: 20 μM and 100 μM, 2 days
Procedure: as §1, §2

[6] = test system: HepG2 cells, a hepatocellular cancer cell line; experiment: cell morphology after 9-day treatment, HepG2 cells; format: cell-based
Text: as §3

[7] = test system: H727 pulmonary carcinoid cells; experiment: MTT cell proliferation assay, H727 cells; format: cell-based, human; details: 100 μM, to day 16, versus DMSO
Procedure: MTT Cell Proliferation Assay. […] Cells were trypsinized and plated in triplicate to 24 wells plates and allowed to adhere overnight. […] Cells were incubated and maintained with change of treatments at 2 days. Cell growth rates were analyzed after the addition of MTT reagent to the cultured cells following manufacturer's instructions. Absorbance was determined using spectrophotometer at a wave length of 540 nm.

Panc-1 = Panc-1 MTT Assay; format: cell-based; parameters: dose or concentration left out as unconfirmed; details: Panc-1, three concentrations

Cc1ccc(NC(=O)c2cccc(N(C)C)c2)cc1NC(=O)c1ccc(O)cc1 [ZM336372, N-[5-(dimethyl-aminobensamido)-2-methylphenyl]-4-hydroxybenzamide]
hASH1 level (hASH1): reduction in both CgA and hASH1; also recorded: dose dependent decrease | cell death ([1]; HT-29, 100 μM, 9-day cycle): significant cell death | number of cells in culture ([1]; HT-29, 50 microM, day 9, versus control): dramatic difference in the number of cells present at day 9 | cytopathology ([1]; HT-29, low concentrations, 9-day cycle): cytopathology at low concentrations | p-MAPK level (pMEK and p-MAPK): increase in the levels of both pMEK and p-MAPK | pMEK level (pMEK and p-MAPK): increase in the levels of both pMEK and p-MAPK | viability at 2 days [2]: ~70% | growth of H727 cells in culture [3]: never reached confluence; also recorded: clear difference in growth; also recorded: paucity of cells reaching confluence | phosphorylated ERK 1/2 (pERK, pMAPK) (Raf-1/MEK/ERK; 20 μM and 100 μM, 2 days): elevated phosphorylated MAPK; also recorded: activation of MEK 1/2 and ERK 1/2; also recorded: dose dependent increases | phosphorylated MEK 1/2 (pMEK) (Raf-1/MEK/ERK; 20 μM and 100 μM, 2 days): activation of MEK 1/2 and ERK 1/2; also recorded: dose dependent increases | phosphorylated Raf-1 at serine 338 (pRaf-1) (Raf-1/MEK/ERK; 20 μM and 100 μM, 2 days): phosphorylated at serine 338; also recorded: dose dependent increases | phosphorylated MEK 1/2 over time (Raf-1/MEK/ERK; 100 μM, days 2, 4 and 6): prolonged; also recorded: greater than controls out to 6 days | growth of TT cells (MTT) [4]: clear suppression of growth | cell death (MiaPaCa-2; MiaPaCa-2, 100 μM, 9-day cycle): significant cell death | cell numbers in culture (MiaPaCa-2; MiaPaCa-2, 100 microM, day 9): dramatic decrease in cell numbers | growth of BON cells in culture [5]: dramatic growth arrest; also recorded: clear difference in growth | p21 expression (p21): induced; also recorded: significant induction | cell death (Panc-1 cells): significant cell death | cellular proliferation (MTT) (HT-29): effects at low concentrations; also recorded: effective at decreasing cellular proliferation | activation of raf-1 (raf-1; COS1 cells): > 100 fold | activation of raf-1 (raf-1; NIH3T3 cells): > 100 fold | activation of raf-1 (raf-1; PC12 cells): > 100 fold | raf-1 activation compared with EGF stimulation (raf-1; Swiss 3T3 cells): much higher than that attained after stimulation with epidermal growth factor (EGF) | time for which induction of raf-1 was sustained (raf-1; Swiss 3T3 cells): at least 3 hours | time of exposure after which induction of raf-1 occurred (raf-1; Swiss 3T3 cells): 60 min | activation of raf-1 (raf-1; human 293 cells): > 100 fold | p18 expression (p18): induced; also recorded: significant induction | cell death ([6]; HepG2, 100 μM, 9-day cycle): significant cell death | cell growth in culture ([6]; HepG2, 50 microM, day 9, versus DMSO control): clear difference in cell growth | cytopathology ([6]; HepG2, low concentrations, 9-day cycle): cytopathology at low concentrations | H727 cell proliferation (MTT) [7]: clear suppression of growth; also recorded: growth suppressed; also recorded: inhibited | cellular proliferation (MTT) (Panc-1): inhibition at the highest concentration; also recorded: clear decrease | IC50 (cytotoxicity) (BON cells): did not produce enough cellular cytotoxicity to estimate an IC50
